Measured values reported in patent publication US20240115564A1, “HTR1F ANTAGONISTS FOR IMPROVEMENT OF BETA CELL SURVIVAL AND FUNCTION” (The Regents of the University of California, priority 2021, published 2024).

Key:
primary human islet cell = assay: Sytox Green cell death assay in dissociated human islets treated with HTR1F agonist; format: cell-based; conditions: 24 hours, two independent donors
Description: Dissociated human islets were treated with the indicated doses of LY344864 for 24 hours. Dead cells were monitored by Sytox Green. The number of Sytox Green nuclei were normalized to cell density measured by bright field imaging. n=4 biological replicates for each donor. *p<0.05, **p<0.01 by post-hoc Student's t-test after one-way ANOVA versus vehicle treatment.
(§1) Human beta cell death and proliferation: Islets were dissociated and plated on 804G coated plates as done for the screens. For Sytox Green assays, islets were plated into 96 well plates and Sytox Green (Thermo) was added to the media (30 nM) and green fluorescence and bright field images were captured at 24 hours during culture (Incucyte). The number of green nuclei normalized to the cell density (calculated by brightfield image) was measured in biological triplicate (FIG. 2A). For FIG. 3C, dead nuclei were normalized to total nuclei as measured after treatment of the cells with 0.0625% Triton X-100. For the in vitro TUNEL assay (FIG. 2B and FIG. 2C), cells were fixed in 4% paraformaldehyde in calcium/magnesium free PBS for 15 minutes at room temperature, permeabilized with 0.1% Triton X-100 for 1 hour, blocked with 10% donkey serum in PBS for 1 hour at room temperature, and stained with guinea pig anti-insulin antibody (Agilent) overnight at 4 degrees. […]

[1] = target: other serotonin family GPCRs and adrenergic receptors; conditions: cited from earlier work
primary human beta cells = assay: TUNEL / insulin staining of dissociated human islets (beta cell death); format: cell-based; conditions: at 10 nM, 24 hours, 4 donors
Description: A representative image is shown. White arrows represent cells that are TUNEL+ insulin+ cells. Scale bar is 25 μM.
Given differences in baseline cell death between donors, the fold increase in the fraction of TUNEL+ beta cells over vehicle control is plotted. Standard error is shown, n=4 donors with at least 400 beta cells counted for each donor. *p<0.05, one-way ANOVA, post-hoc tested against vehicle.
as §1

other HTR1 receptors = conditions: cited from earlier work
HTR1F [2] = target: T1, HTR1F (Homo sapiens, UniProt P30939); conditions: read-out: reported EC50; cited from earlier work
T1 sequence (P30939 1-366): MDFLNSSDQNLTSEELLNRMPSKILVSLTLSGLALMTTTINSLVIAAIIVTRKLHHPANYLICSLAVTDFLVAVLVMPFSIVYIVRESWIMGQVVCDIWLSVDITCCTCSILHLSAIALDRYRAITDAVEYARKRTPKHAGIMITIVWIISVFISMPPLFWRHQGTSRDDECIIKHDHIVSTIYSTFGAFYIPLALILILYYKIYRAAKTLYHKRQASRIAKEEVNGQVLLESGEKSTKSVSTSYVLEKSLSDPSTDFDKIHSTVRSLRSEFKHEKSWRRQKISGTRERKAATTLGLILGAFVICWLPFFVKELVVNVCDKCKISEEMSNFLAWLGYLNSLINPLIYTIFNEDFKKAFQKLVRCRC

human islets = assay: Glucose-stimulated insulin release in human islets; format: cell-based; conditions: 150 nM, 11 mM glucose, 9 human islet donors, vs DMSO
Description: Human islets were rested for 24 hours after receipt in CMRL 1066 (Media Tech) supplemented with penicillin and streptomycin, B27 supplement, Glutamax (Thermo), and non-essential amino acids (Thermo). For both the test treatment group and the control treatment group, 40-60 islets for each of the 5 replicates were hand-picked. The islets were equilibrated for two hours at 37° C. in Kreb-Ringer Bicarbonate HEPES Buffer pH 7.4 (KRBH; 137 mM NaCl, 4.7 mM KCl, 1.2 mM KH2PO4, 1.2 mM MgSO4, 2.5 mM CaCl2), 25 mM NaHCO3, 20 mM HEPES, 2.8 mM glucose, and 0.25% BSA). Equilibration buffer was then removed and islets were incubated at 37° C. with KRBH pH 7.4 with 2.8 mM glucose and 0.25% BSA and were treated with DMSO or 150 nM HTR1F antagonist 1-(2-hydroxy-3-(naphthalen-2-yloxy)propyl)-4-(quinolin-3-yl)piperidin-4-ol. After 1 hour, islet secretion was collected and islets were treated with KRBH pH 7.4 containing 11 mM glucose and 0.25% BSA and were treated with DMSO or 150 nM antagonist at 37° C. for another hour. Following incubation, islet secretions were collected and the islets were lysed in RIPA buffer to determine the total islet insulin content. Islet secretions were diluted 2-5 fold for analysis with the Mercodia insulin ELISA kit and lysates were diluted 200-500 fold for analysis. […]

HTR1F [3] = target: T1, HTR1F; assay: Glosensor cAMP assay in 293T cells transfected with HTR1F cDNA; format: cell-based; design: from tissue; host or cells: primary human islets from cadaveric donors, transplanted under the kidney capsule of scid-beige mice; conditions: 10 minutes pre-treatment, serotonin 5 nM then forskolin
Description: 293T cells were transiently transfected with the Glosensor plasmid (Promega) and the HTR1F cDNA. The cells were pre-treated with 1-(2-hydroxy-3-(naphthalen-2-yloxy)propyl)-4-(quinolin-3-yl)piperidin-4-ol at the concentrations shown in FIG. 4 for 10 minutes, then with serotonin (5 nM), and then forskolin and luminescence was determined. n=5, error bars show standard error. […] N=5 per concentration.

[4] = tested on: MIN6 cells transfected with GFP-T2A-HTR1F; assay: MIN6 cell death after HTR1F expression (propidium iodide); format: cell-based, mouse; conditions: 200 ng/mL pre-incubation, 32-40 hours after transfection
Description: GFP+ cells were assessed for cell death by propidium iodide staining 32-40 hours after transfection. […] Significant post-hoc Holm adjusted Student's t-test comparisons are shown. n=33 for each group conducted over 3 independent experiments. Taken together, FIGS. 2A-2D illustrate the induction of primary human beta cell death by HTR1F signaling.
MIN6 cell death: The human HTR1F cDNA was cloned from 293T cDNA and cloned downstream of a CMV promoter GFP-T2A expression vector with the addition of a viral signal sequence and FLAG epitope tag as previously described. The sequence was confirmed by Sanger sequencing. 10,000 MIN6 cells were plated in a 96-well plate. The following day, the cells were transfected with either the parental GFP-T2A expression vector or GFP-T2A-HTR1F using Lipofectamine 2000 (Thermo Fisher). Six hours after transfection, the media was changed to one containing propidium iodide (Thermo Fisher) at 0.3 ug/mL. The percentage of GFP+ cells that were also PI+ was measured by automated fluorescence microscopy (IncuCyte, Essen Biosciences) at 32-40 hours after transfection. For pertussis toxin (Enzo), cells were treated with 200 ng/mL during cell plating and during transfection.

dissociated human islets = assay: Sytox Green cell death in dissociated human islets with thapsigargan and methysergide; format: cell-based; conditions: 48 hours
Description: Each graph is from an independent donor. *p<0.05 for thapsigargan and for the interaction between methysergide and thapsigargan by 2-way ANOVA. Standard error is shown.
as §1, with “degrees. Secondary antibody was anti-guinea pig 488 (Thermo) at 1:300 for 1 hour at room temperature. For TUNEL staining, In Situ Death Detection Kit, TMR red (Roche) was used per the manufacturer's protocol in combination with insulin staining as above.” for “degrees.”

HTR1F [5] = target: T1, HTR1F; conditions: cited from earlier work
[6] = tested on: scd beige mice receiving human islets; assay: Minimal (marginal mass) human islet transplant model with methysergide; format: in vivo, mouse; conditions: islets 300 nM 24 hours; mice 10 mg/kg daily peri-transplant, 5 days; p<0.05 log-rank
Description: Taken together, FIGS. 3A-3D illustrate the prevention of human beta cell death by blocking of HTR1F signaling.
Minimal human islet transplant model with methysergide: Human islets were treated with 300 nM methysergide maleate or vehicle for 24 hours after isolation. Seven-hundred IEq were then transplanted under the kidney capsule of scd beige mice. Four hours prior to transplant, recipient mice were injected with either 10 mg/kg methysergide maleate or vehicle. After transplant, mice were injected every 24 hours with 10 mg/kg methysergide or vehicle for 5 days. After 48 hours without methysergide treatment to allow washout of the drug, streptozotocin (250 mg/kg) was injected into the peritoneal space with 1 mL of normal saline injected subcutaneously for hydration. […] Blood glucose was assessed by glucometer (Freestyle Lite) after a 6 hour fast (9 am-3 pm). […]
To ask if improved human beta cell survival due to HTR1F inhibition could improve glycemia after transplant, human islets were treated with methysergide or vehicle and then a marginal mass of islets was transplanted into mice. […] After 2 days to allow for methysergide clearance, the endogenous mouse beta cells were destroyed using streptozotocin and monitored for diabetes development. […]

[7] = cited from earlier work

**Q.** Which “primary human islet cell death (Sytox Green)” value (primary human islet cell) does the source give for `CN(C)[C@@H]1CCc2[nH]c3ccc(NC(=O)c4ccc(F)cc4)cc3c2C1` [LY344864] here?
**A.** increase primary human islet cell death

**Q.** What about the Ki [1] of the same compound?
**A.** 1500 to 5000 nM

**Q.** And the “beta cell death (TUNEL+ insulin+ cells)” value (primary human beta cells)?
**A.** increase beta cell death

**Q.** What about the Ki (other HTR1 receptors) of the same compound?
**A.** > 500 nM

**Q.** And the EC50 (HTR1F [2])?
**A.** 3 nM

**Q.** Which “increase in insulin secretion at high glucose concentration” value (human islets) does the source give for `OC(COc1ccc2ccccc2c1)CN1CCC(O)(c2cnc3ccccc3c2)CC1` (centres unmarked) [1-(2-hydroxy-3-(naphthalen-2-yloxy)propyl)-4-(quinolin-3-yl)piperidin-4-ol] here?
**A.** 40%

**Q.** And the “inhibition of HTR1F (cAMP luminescence)” value (HTR1F [3])?
**A.** inhibition of HTR1F

**Q.** With pertussis toxin as the compound, how does the “effect on HTR1F-induced cell death” value [4] read?
**A.** blocked

**Q.** With `CC[C@@H](CO)NC(=O)[C@@H]1C=C2c3cccc4c3c(cn4C)C[C@H]2N(C)C1` [methysergide, (6aR,9R)—N—((S)-1-hydroxybutan-2-yl)-4,7-dimethyl-4,6,6a,7,8,9-hexahydroindolo[4,3-fg]quinoline-9-carboxamide] as the compound, how does the “effect on death triggered by thapsigargan” value (dissociated human islets; 30 nM methysergide with 10 μM thapsigargan) read?
**A.** prevent death

**Q.** What about the “effect of methysergide alone on islet cell death” value (dissociated human islets; 30 nM, dissociated cultures) of the same compound?
**A.** no effect

**Q.** What about the “inhibition of HTR1F” value (HTR1F [5]) of the same compound?
**A.** potently inhibit

**Q.** What about the “diabetes-free survival / development of diabetes after streptozotocin” value [6] of the same compound?
**A.** protect mice from the development of diabetes

**Q.** And the “risk during chronic treatment” value ([7]; chronic treatment)?
**A.** risk of retroperitoneal fibrosis

**Q.** And the “insulin secretion in humans” value ([7]; humans)?
**A.** increase insulin secretion
